The compounds below were run against T1, Type-1 angiotensin II receptor B (Rattus norvegicus, UniProt P29089) (assay: Inhibition of binding of [125I]All at the angiotensin II type 1 receptor (AT1 receptor) in rat liver membranes).
T1 sequence (P29089 whole entry): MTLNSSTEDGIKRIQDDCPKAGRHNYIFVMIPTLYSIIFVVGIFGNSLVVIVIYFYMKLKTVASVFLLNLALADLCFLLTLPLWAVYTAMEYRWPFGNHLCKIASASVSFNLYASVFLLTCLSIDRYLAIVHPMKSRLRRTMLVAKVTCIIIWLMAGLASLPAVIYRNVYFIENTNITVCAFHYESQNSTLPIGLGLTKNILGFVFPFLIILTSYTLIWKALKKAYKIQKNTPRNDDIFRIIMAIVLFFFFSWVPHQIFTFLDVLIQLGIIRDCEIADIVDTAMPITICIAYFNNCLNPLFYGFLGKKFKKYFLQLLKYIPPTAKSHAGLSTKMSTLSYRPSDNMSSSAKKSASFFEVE
Type: cell membranes, Membrane

Row | SMILES | Ki
1 | CCc1nn(Cc2ccc(-c3ccccc3-c3nn[nH]n3)cc2)/c(=N/C(=O)c2cccc(Br)c2)s1 | 300 nM
2 | CCc1nn(Cc2ccc(-c3ccccc3-c3nn[nH]n3)cc2)/c(=N/C(=O)c2ccc(C(F)(F)F)cc2)s1 | 557 nM
3 | CCc1nn(Cc2ccc(-c3ccccc3-c3nn[nH]n3)cc2)/c(=N/C(=O)c2ccc(F)cc2)s1 | 102 nM
4 | CCc1nn(Cc2ccc(-c3ccccc3-c3nn[nH]n3)cc2)/c(=N/C(=O)c2cccc(C)c2)s1 | 79.4 nM
5 | CCc1nn(Cc2ccc(-c3ccccc3-c3nn[nH]n3)cc2)/c(=N/C(=O)c2ccccc2)s1 | 36 nM
6 | CCc1nn(Cc2ccc(-c3ccccc3-c3nn[nH]n3)cc2)/c(=N/C(=O)c2ccccc2F)s1 | 7.24 nM
7 | CCc1nn(Cc2ccc(-c3ccccc3-c3nn[nH]n3)cc2)/c(=N/C(=O)c2ccc(Cl)cc2)s1 | 330 nM
8 | CCc1nn(Cc2ccc(-c3ccccc3-c3nn[nH]n3)cc2)/c(=N/C(=O)c2ccc(C)cc2)s1 | 48 nM
9 | CCc1nn(Cc2ccc(-c3ccccc3-c3nn[nH]n3)cc2)/c(=N/C(=O)c2ccc(OC)cc2)s1 | 28 nM
10 | CCc1nn(Cc2ccc(-c3ccccc3-c3nn[nH]n3)cc2)/c(=N/C(=O)c2ccc([N+](=O)[O-])cc2)s1 | 141 nM
11 | CCc1nn(Cc2ccc(-c3ccccc3-c3nn[nH]n3)cc2)/c(=N/C(=O)c2ccccc2C)s1 | 35.9 nM
12 | CCc1nn(Cc2ccc(-c3ccccc3-c3nn[nH]n3)cc2)/c(=N/C(=O)c2cccc(Cl)c2)s1 | 190 nM
13 | CCc1nn(Cc2ccc(-c3ccccc3-c3nn[nH]n3)cc2)/c(=N/C(=O)c2cccc(F)c2)s1 | 134 nM
14 | CCc1nn(Cc2ccc(-c3ccccc3-c3nn[nH]n3)cc2)/c(=N/C(=O)c2cccc([N+](=O)[O-])c2)s1 | 141 nM
15 | CCCc1nn(Cc2ccc(-c3ccccc3-c3nn[nH]n3)cc2)/c(=N/C(=O)c2ccccc2Cl)s1 | 22 nM
16 | CCCCc1nn(Cc2ccc(-c3ccccc3-c3nn[nH]n3)cc2)/c(=N/C(=O)c2ccccc2Cl)s1 | 200 nM
17 | O=C(/N=c1\sc(C2CC2)nn1Cc1ccc(-c2ccccc2-c2nn[nH]n2)cc1)c1ccccc1Cl | 15.1 nM
18 | Cc1nn(Cc2ccc(-c3ccccc3-c3nn[nH]n3)cc2)/c(=N/C(=O)c2ccccc2Cl)s1 | 18 nM
19 | CCc1nn(Cc2ccc(-c3ccccc3-c3nn[nH]n3)cc2)/c(=N/C(=O)c2cccc(C(F)(F)F)c2)s1 | 447 nM
20 | CCc1nn(Cc2ccc(-c3ccccc3-c3nn[nH]n3)cc2)/c(=N/C(=O)c2cccc(OC)c2)s1 | 49 nM
21 | CCc1nn(Cc2ccc(-c3ccccc3-c3nn[nH]n3)cc2)/c(=N/C(=O)c2ccc(Br)cc2)s1 | 320 nM

Compounds with a lower Ki, results first:

Row | Ki | SMILES
22 | 3.39 nM | CCc1nn(Cc2ccc(-c3ccccc3-c3nn[nH]n3)cc2)/c(=N/C(=O)c2ccccc2Cl)s1
23 | 2 nM | CCCc1nn(Cc2ccc(-c3ccccc3-c3nn[nH]n3)cc2)/c(=N/C(=O)c2ccccc2C(=O)O)s1
24 | 6 nM | CCc1nn(Cc2ccc(-c3ccccc3-c3nn[nH]n3)cc2)/c(=N/C(=O)c2ccccc2C(F)(F)F)s1
25 | 2.5 nM | CCc1nn(Cc2ccc(-c3ccccc3-c3nn[nH]n3)cc2)/c(=N/C(=O)c2ccccc2OC)s1
26 | 3.86 nM | CCc1nn(Cc2ccc(-c3ccccc3-c3nn[nH]n3)cc2)/c(=N/C(=O)c2ccccc2I)s1
27 | 3.47 nM | CCc1nn(Cc2ccc(-c3ccccc3-c3nn[nH]n3)cc2)/c(=N/C(=O)c2ccccc2Br)s1
28 | 0.619 nM | CCc1nn(Cc2ccc(-c3ccccc3-c3nn[nH]n3)cc2)/c(=N/C(=O)c2ccccc2C(=O)O)s1
29 | 2.69 nM | Cc1nn(Cc2ccc(-c3ccccc3-c3nn[nH]n3)cc2)/c(=N/C(=O)c2ccccc2C(=O)O)s1
30 | 3.23 nM | CCc1nn(Cc2ccc(-c3ccccc3-c3nn[nH]n3)cc2)/c(=N/C(=O)c2ccccc2[N+](=O)[O-])s1

From ChEMBL document CHEMBL1129837, “Quantitative structure-activity relationships of benzoyliminothiadiazoline derivatives as angiotensin II receptor antagonists” (Bioorg Med Chem Lett, 1997)
